Experimental data from PubChem BioAssay AID248 (DTP/NCI, 2004).
Values joined by “and” are separate entries in the source; they are usually repeats but may differ in a detail not shown here. Equal entries are not always repeated. Inconclusive results and toxic doses are left out. Rule as the data show it: active = T/C of 150% or more; inactive = T/C below 125%.

Test system: L1210 leukemia ip in BDF1 mice, survival T/C
Test: NCI In Vivo Anticancer Drug Screen. Data for tumor model L1210 Leukemia (intraperitoneal) in B6D2F1 (BDF1) mice
Conditions: endpoint: mean survival time, higher = longer survival
How it was run: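 Ratio derived from survival: compound-dosed mice over vehicle-dosed mice, all bearing a transplantable tumor.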

[1] = dose: 100.0 mg/kg/injection, schedule: Q01DX009 (ip), vehicle: saline with Tween-80
[2] = dose: 100.0 mg/kg/injection, schedule: Q04DX003 (ip), vehicle: saline with Tween-80
[3] = dose: 200.0 mg/kg/injection, schedule: Q01DX009 (ip), vehicle: saline with Tween-80
[4] = dose: 200.0 mg/kg/injection, schedule: Q04DX003 (ip), vehicle: saline with Tween-80
[5] = dose: 400.0 mg/kg/injection, schedule: Q01DX009 (ip), vehicle: saline with Tween-80
[6] = dose: 400.0 mg/kg/injection, schedule: Q04DX003 (ip), vehicle: saline with Tween-80
[7] = dose: 100.0 mg/kg/injection, schedule: Q04DX003 (ip), vehicle: other
[8] = dose: 200.0 mg/kg/injection, schedule: Q04DX003 (ip), vehicle: other
[9] = dose: 400.0 mg/kg/injection, schedule: Q04DX003 (ip), vehicle: other
[10] = dose: 100.0 mg/kg/injection, schedule: Q04DX003 (ip), vehicle: Klucel (hydroxypropylcellulose) (HPC)
[11] = dose: 200.0 mg/kg/injection, schedule: Q04DX003 (ip), vehicle: Klucel (hydroxypropylcellulose) (HPC)
[12] = dose: 400.0 mg/kg/injection, schedule: Q04DX003 (ip), vehicle: Klucel (hydroxypropylcellulose) (HPC)
[13] = dose: 100.0 mg/kg/injection, schedule: Q01DX001 (ip), vehicle: saline with Tween-80
[14] = dose: 200.0 mg/kg/injection, schedule: Q01DX001 (ip), vehicle: saline with Tween-80
[15] = dose: 400.0 mg/kg/injection, schedule: Q01DX001 (ip), vehicle: saline with Tween-80
[16] = dose: 100.0 mg/kg/injection, schedule: Q01DX009 (ip), vehicle: Klucel (hydroxypropylcellulose) (HPC)
[17] = dose: 100.0 mg/kg/injection, schedule: Q04DX003 (ip), vehicle: saline
[18] = dose: 200.0 mg/kg/injection, schedule: Q04DX003 (ip), vehicle: saline

Measured: T/C

CC(C)(C)NC(=O)CCl
inactive: dose: 100.0 mg/kg/injection, schedule: Q01DX001 (ip), vehicle: Klucel (hydroxypropylcellulose) (HPC) 93 % of control | dose: 200.0 mg/kg/injection, schedule: Q01DX001 (ip), vehicle: Klucel (hydroxypropylcellulose) (HPC) 106 % of control

CN1CNC(C=O)(CCc2ccc(Cl)cc2)C1 (stereo unspecified)
inactive: dose: 200.0 mg/kg/injection, schedule: Q01DX001 (ip), vehicle: other 87 % of control | dose: 400.0 mg/kg/injection, schedule: Q01DX001 (ip), vehicle: other 98 % of control

O=S(=O)(NO)c1ccccc1
inactive: [1] 98 % of control | [2] 98 % of control | [3] 96 % of control | [4] 100 % of control | [5] 98 % of control | [6] 98 % of control

CCc1cccc(CC)c1N=C=Nc1c(CC)cccc1CC
inactive: [7] 104 % of control | [8] 100 % of control | [9] 104 % of control

O=N[O-].O=N[O-].[Co].[NH-]CC[N-]CCO.[NH-]CC[N-]CCO
inactive: dose: 25.0 mg/kg/injection, schedule: Q01DX009 (ip), vehicle: water 109 % of control and 122 % of control | dose: 25.0 mg/kg/injection, schedule: Q04DX003 (ip), vehicle: water 99 % of control | dose: 50.0 mg/kg/injection, schedule: Q01DX009 (ip), vehicle: water 103 % of control and 109 % of control | dose: 50.0 mg/kg/injection, schedule: Q04DX003 (ip), vehicle: water 100 % of control | dose: 100.0 mg/kg/injection, schedule: Q01DX009 (ip), vehicle: water 120 % of control and 89 % of control | dose: 100.0 mg/kg/injection, schedule: Q04DX003 (ip), vehicle: water 97 % of control and 100 % of control

COc1ccccc1OC(=S)N(C)C
inactive: [1] 102 % of control | [2] 103 % of control | [3] 100 % of control | [4] 122 % of control | [5] 93 % of control | [6] 105 % of control

Cc1cccc2c1OC(=O)CCC21CCCCC1=O (stereo unspecified)
inactive: [1] 101 % of control | [3] 98 % of control | [5] 97 % of control

O=C(Nc1ccc(C(=O)O)c(O)c1)Oc1ccccc1
inactive: [10] 90 % of control | [11] 98 % of control | [12] 107 % of control

CSCCCCCCSC
inactive: dose: 50.0 mg/kg/injection, schedule: Q01DX009 (ip), vehicle: saline 101 % of control | dose: 100.0 mg/kg/injection, schedule: Q01DX009 (ip), vehicle: saline 96 % of control | dose: 200.0 mg/kg/injection, schedule: Q01DX009 (ip), vehicle: saline 90 % of control

Nc1ccc(C(=O)Nc2ccc(NC(=O)Nc3ccc(NC(=O)c4ccc(N)cc4)c(S(=O)(=O)O)c3)cc2S(=O)(=O)O)cc1
inactive: dose: 60.0 mg/kg/injection, schedule: Q01DX Z (ip), vehicle: carboxymethylcellulose (CMC) 96 % of control | dose: 120.0 mg/kg/injection, schedule: Q01DX Z (ip), vehicle: carboxymethylcellulose (CMC) 98 % of control | dose: 240.0 mg/kg/injection, schedule: Q01DX Z (ip), vehicle: carboxymethylcellulose (CMC) 95 % of control | dose: 240.0 mg/kg/injection, schedule: Q01DX Z (oral), vehicle: carboxymethylcellulose (CMC) 106 % of control | dose: 480.0 mg/kg/injection, schedule: Q01DX Z (ip), vehicle: carboxymethylcellulose (CMC) 95 % of control | dose: 480.0 mg/kg/injection, schedule: Q01DX Z (oral), vehicle: carboxymethylcellulose (CMC) 112 % of control | dose: 960.0 mg/kg/injection, schedule: Q01DX Z (oral), vehicle: carboxymethylcellulose (CMC) 93 % of control

O=C1c2ccccc2CC/C(=N\O)C1c1ccccc1 (stereo unspecified)
inactive: [13] 107 % of control | [14] 98 % of control | [15] 104 % of control

CC(C(=O)c1cccs1)=C(C(F)(F)F)C(F)(F)F
inactive: [7] 100 % of control | [8] 94 % of control | [9] 98 % of control

Cc1cc(C)c2c(=O)[nH]c(=S)[nH]c2n1
inactive: dose: 50.0 mg/kg/injection, schedule: Q01DX001 (ip), vehicle: saline 102 % of control | dose: 100.0 mg/kg/injection, schedule: Q01DX001 (ip), vehicle: saline 108 % of control | [16] 95 % of control | dose: 200.0 mg/kg/injection, schedule: Q01DX001 (ip), vehicle: saline 102 % of control | dose: 200.0 mg/kg/injection, schedule: Q01DX009 (ip), vehicle: Klucel (hydroxypropylcellulose) (HPC) 91 % of control | dose: 400.0 mg/kg/injection, schedule: Q01DX001 (ip), vehicle: saline 98 % of control | dose: 400.0 mg/kg/injection, schedule: Q01DX009 (ip), vehicle: Klucel (hydroxypropylcellulose) (HPC) 98 % of control

CCOCc1cnc(C)nc1N
inactive: [13] 94 % of control | [14] 94 % of control

CCC(=O)Nc1ccc(OS(=O)(=O)N(C)C)cc1
inactive: [13] 100 % of control | [14] 95 % of control | [15] 100 % of control

COc1cc(OC)c(OC)cc1/C=C/c1cc[n+](C)c2ccccc12
inactive: dose: 25.0 mg/kg/injection, schedule: Q04DX002 (ip), vehicle: Klucel (hydroxypropylcellulose) (HPC) 95 % of control | dose: 50.0 mg/kg/injection, schedule: Q04DX002 (ip), vehicle: Klucel (hydroxypropylcellulose) (HPC) 101 % of control | dose: 100.0 mg/kg/injection, schedule: Q04DX002 (ip), vehicle: Klucel (hydroxypropylcellulose) (HPC) 109 % of control and 111 % of control

NC(CCn1cnc2c(=O)[nH]cnc21)C(=O)O (stereo unspecified)
inactive: [10] 101 % of control | [11] 102 % of control | [12] 96 % of control

CCOC(=O)C(Br)C(Br)c1ccccc1 (stereo unspecified)
inactive: [17] 103 % of control | [18] 108 % of control | dose: 400.0 mg/kg/injection, schedule: Q04DX003 (ip), vehicle: saline 98 % of control

COc1ccc(-c2nc3ccccc3s2)cc1OC
inactive: [10] 95 % of control and 105 % of control | [11] 98 % of control and 102 % of control | [12] 98 % of control and 105 % of control

CCCC1([N+]2(C)CCCC2)CS(=O)C1CC (stereo unspecified)
inactive: [17] 98 % of control | [18] 93 % of control

CC(C1CCC/C(=N\NC(N)=O)C1)[N+](=O)[O-] (stereo unspecified)
inactive: dose: 25.0 mg/kg/injection, schedule: Q01DX009 (ip), vehicle: saline with Tween-80 95 % of control | dose: 50.0 mg/kg/injection, schedule: Q01DX009 (ip), vehicle: saline with Tween-80 104 % of control | [1] 89 % of control | [2] 90 % of control | [4] 98 % of control

CCOC(=S)SC/C=C/CSC(=S)OCC
inactive: dose: 100.0 mg/kg/injection, schedule: Q04DX002 (ip), vehicle: saline with Tween-80 97 % of control | dose: 200.0 mg/kg/injection, schedule: Q04DX002 (ip), vehicle: saline with Tween-80 103 % of control | dose: 400.0 mg/kg/injection, schedule: Q04DX002 (ip), vehicle: saline with Tween-80 107 % of control

CCN(CC)c1ccc(C2NC(=O)c3ccccc3N2)cc1 (stereo unspecified)
inactive: dose: 50.0 mg/kg/injection, schedule: Q01DX009 (ip), vehicle: Klucel (hydroxypropylcellulose) (HPC) 106 % of control and 108 % of control | [16] 116 % of control | dose: 150.0 mg/kg/injection, schedule: Q01DX009 (ip), vehicle: Klucel (hydroxypropylcellulose) (HPC) 104 % of control and 117 % of control

O=C(C[n+]1ccccc1)c1cn(Cc2ccccc2)c2ccccc12
inactive: dose: 75.0 mg/kg/injection, schedule: Q01DX001 (ip), vehicle: other 98 % of control | dose: 150.0 mg/kg/injection, schedule: Q01DX001 (ip), vehicle: other 97 % of control
